# Measurements published in ChEMBL document CHEMBL5505993, “Identification of a ferritinophagy inducer via sinomenine modification for the treatment of colorectal cancer” (Eur J Med Chem, 2024).
# The source made the active and inactive calls. No cut-off for these calls is given here.
# Experiments:
# Type in all cases: functional, cell-based
# HCT-116 [1] = experiment: Induction of ferroptosis in human HCT-116 cells assessed as effect on ACSL4 protein expression at 5 to 20 uM incubated for 12 hrs by Western blotting analysis; settings: dose 5-20 µM
# HCT-116 [2] = experiment: Induction of ferroptosis in human HCT-116 cells assessed as increase in intracellular ferrous ion level at 20 uM incubated for 12 hrs in presence of ferroptosis inhibitor, Ferrostatin-1 by ferroOrange probe based flow cytometric analysis
# HCT-116 [3] = experiment: Inhibition of colony formation in human HCT-116 cells incubated for 12 hrs by crystal violet staining based analysis
# HCT-116 [4] = experiment: Induction of ferroptosis in human HCT-116 cells assessed as increase in 4-HNE level in presence of deferoxamine mesylate at 20 uM by ELISA
# HCT-116 [5] = experiment: Cytotoxicity against human HCT-116 cells assessed as inhibition of cell growth incubated for 24 hrs by CCK-8 assay; settings: HCT-116, 24 h
smiles,measurement,setting,value
C=C(Cl)C(=O)NCCCCCCCCCCCC(=O)Oc1c(OC)ccc2c1[C@@]13CCN(C)[C@@H](C2)[C@H]1C=C(OC)C(=O)C3,Activity,HCT-116 [1],inactive
same,Activity,HCT-116 [2],inactive
same,inhibition,HCT-116 [3],Dose-Dependent Effect
same,Activity,HCT-116 [4],inactive
same,IC50,HCT-116 [5],11.2 µM
